Test results reported in patent publication US20260174677A1, “METHODS OF TREATING INSULIN RESISTANCE AND ASSOCIATED DISORDERS” (The University of Melboune, priority 2022, published 2026).

Assays:
Type in all cases: in vivo, mouse
[1] = I.C.V. fluorosamine in obese mice: metabolic assessment; conditions: I.C.V. daily for 10 days
Method: (§1) Metabolic measurements were undertaken in the Melbourne Mouse Metabolic Phenotyping Platform (The University of Melbourne, Australia). Glucose tolerance tests were performed on 6 h fasted conscious mice respectively by injecting D-glucose (2 mg/g of lean body mass and 1 mg/g lean mass for db/db and HFHS+STZ mice) into the peritoneal cavity and measuring glucose in tail blood immediately before and at 15, 30, 45, 60, 90 and 120 min after injection using an Accu-Check glucometer (Roche, Germany). The areas under glucose excursion curves were determined and expressed as mmol/1×min. Fasted (12 h fast) plasma insulin or glucose levels were determined using a Rat/Mouse Insulin ELISA (EZRMI-13K, Merck Millipore, CA) or an Accu-Check glucometer respectively. The HOMA-IR was calculated using the equation [(glucose×insulin)/405]. Adiposity was measured using TD-NMR minispec (Bruker Optics Inc., Billerica, MA).
(§2) Mice were acclimated for 24 h and then monitored for 48 h in an environmentally controlled Promethion Metabolic Screening System (Sable Systems International, NV) fitted with indirect open circuit calorimetry, food consumption and activity monitors to measure activity, caloric intake and energy expenditure. Respiratory quotients were calculated as the ratio of CO2 production over O2 consumption respiratory exchange ratio and energy expenditure was calculated using the Weir equation (Kcal h-1=60×(0.003941×VO2+0.001106×VCO2). To account for difference in body mass/composition energy expenditure was analysed and adjusted using ANCOVA using scripts available at the National Mouse Metabolic Phenotyping Centers (MMPC, Nashville, TN, USA) Energy Expenditure Analysis Page (https://www.mmpc.org/shared/regression.aspx).
(§3) Under isoflurane anaesthetic 12-week HFHS fed C57BL/6J or AgRP-Cas9 mice were implanted stereotaxically with guide cannulas into the right lateral ventricle (0.2 mm posterior, 1.0 mm lateral from bregma). Guide cannula was positioned 1.3 mm above the injection site (1 mm ventral to the surface of the skull). AgRP-Cas9 mice were treated with either AAV-gScrambled or AAV-gIR and underwent guide cannula placement 7 days post AAV administration. Mice were administered I.C.V. vehicle (ddH2O), fluorosamine (100 μg/animal/day or 250 μgl/animal/day) in a volume of 2 μl/animal and all compounds were delivered approximately 1 h before lights off […].

[2] = I.C.V. fluorosamine: hyperinsulinemic-euglycemic clamps in weight matched obese mice; conditions: I.C.V. daily for 3 days
Method: For hyperinsulinemic-euglycemic clamps, mice were anesthetised under isoflurane and the right jugular vein was catheterised for infusions, as described previously by Dodd et al., 2018. Catheters were attached to an implant button (BMSW25, RWD Life Sciences, Shenzhen, China). Implant buttons were capped allowing for group mousing of mice and catheters were kept patent by flushing daily with 40 μL saline containing 200 units/mL heparin. On the day of the experiment, food was removed at 7:00 A.M. After 3.5 h fasting, a primed (1 min, 1.25 uCi/min) continuous infusion (0.05 uCi/min) of [3-3H]glucose (NET331A001MC, PerkinElmer, MA) was administered to measure whole-body glucose turnover, as described previously by Dodd et al., 2018. 90 minutes later, mice received a 40 mU/Kg insulin bolus over 10 mins which was followed by continuous insulin infusion (4 mU/kg/min in gelofusine). Euglycemia (˜8-10 mM blood glucose) was maintained by a variable infusion of a 30% glucose solution.
Tail blood samples were collected during steady-state conditions (Ra=Rd) and at 80, 90, 100, 110, and 120 min for determination of Rd and Ra, as described above. At 120 mins, a 13 uCi bolus of [^14C]-2-deoxy-D-glucose (NEC495A250UC, PerkinElmer, MA) was injected into the jugular vein, and blood was sampled at 122, 125, 135, 145, and 155 min. […]

[3] = I.C.V. fluorosamine in obese AgRP-Cas9 mice given AAV-gScrambled or AAV-gIR; conditions: 100 μg/animal I.C.V. daily for 10 days
Method: as §1, §2, §3

[4] = control AAV-gScrambled AgRP-Cas9 mice

CC(=O)NC1C(OC(C)=O)OC(COC(C)=O)[C@@H](F)C1OC(C)=O (stereo partly drawn) [fluorosamine, per-O-acetylated-4-F-N-acetylglucosamine]
adiposity [1]: reduced adiposity | body weight [1]: promoted weight loss | energy expenditure [1]: enhanced energy expenditure independently of ambulatory activity | food intake [1]: supressed food intake through enhanced satiety | glucose tolerance [1]: improved glucose tolerance | whole-body insulin sensitivity (GIR) in clamp [2]: enhancement of whole-body insulin sensitivity | positive metabolic outcomes of treatment ([3]; AAV-IR AgRP-Cas9 mice (AgRP insulin receptor disrupted)): mitigated, at least in part | adiposity [3, 4]: reduced adiposity | body weight [3, 4]: promoted weight loss | caloric intake [3, 4]: attenuated caloric intake | energy expenditure [3, 4]: enhanced energy expenditure independently of ambulatory activity | glycaemic control [3, 4]: improved glycaemic control
